Laboratory results: patent publication US20250345392A1, “ANNEXIN A1 LIQUID PHARMACEUTICAL COMPOSITION” (ResoTher Pharma A/S, priority 2022, published 2025)
Where two headings read alike, the source gives them in different places. Ends that are not written are not given here.

Assay: Clinical test in humans, three 30-min i.v. infusions 8 hours apart, plasma PK
Assay type: in vivo
Settings: human, three 30-min i.v. infusions 8 h apart; for AUC / Cmax / Tmax / AUC(0-t) / half-life: iv; for AUC(0-t): read-out: AUC0-24; for half-life: after the last infusion
Method: A total of 8 subjects were included in each group. In each group, 6 subjects received the active treatment and 2 received the placebo. The active treatment was as follows in each group: • Group 9 received three 8 hours apart 30-min Peptide 1 intravenous (i.v.) infusions, wherein each i.v. infusion corresponded to a dose of 50 μg/kg. • Group 10 received three 8 hours apart 30-min Peptide 1 intravenous (i.v.) infusions, wherein each i.v. infusion corresponded to a dose of 100 μg/kg. • Group 11 received three 8 hours apart 30-min Peptide 1 intravenous (i.v.) infusions, wherein each i.v. infusion corresponded to a dose of 140 μg/kg. • Group 12 received three 8 hours apart 30-min Peptide 1 intravenous (i.v.) infusions, wherein each i.v. infusion corresponded to a dose of 200 μg/kg. • Group 13 received three 8 hours apart 30-min Peptide 1 intravenous (i.v.) infusions, wherein each i.v. infusion corresponded to a dose of 250 μg/kg.
The tested liquid pharmaceutical composition has a pH of 8.2-8.4, and comprises the following: • i) 5 mg/ml of Peptide 1, • ii) 4% (w/w) mannitol, • iii) 1% (w/w) sucrose, • iv) 0.01% (w/w) Polysorbate-80, • v) 10 mM glycyl-glycine, and • vi) sterile water for injection.
Venous whole blood samples were collected from all subjects.
Plasma samples were analyzed for Peptide 1 using validated Liquid chromatography—Tandem Mass spectrometry (LC-MS/MS) methods by Charles River Laboratories (CRL).
Derivation of PK parameters were carried out by PhinC Development using Phoenix WinNonlin® (Version Phoenix 8.1—Certara—Princeton—USA). A non-compartmental analysis (NCA) approach was chosen.
For the calculation of the PK parameters and characteristics the following rules were applied: • All the plasma concentrations validated by the bioanalytical laboratory and provided to the pharmacokinetics were used for the PK analysis. • The theoretical PK blood sampling time points were used. • At time points in the lag-time between time zero and the first concentration equal or above limit of quantification (LOQ), concentrations below the LOQ (BLQ) were set to zero (0). • Concentrations BLQ between 2 concentrations equal or above LOQ were considered as missing. • Trailing concentrations (at time point between time of last measurable concentrations and time of last blood sample) BLQ were not used in calculations. • For 3 infusions regimen, each infusion was considered separately and BLQ rules were applied for each infusion. […] If the pre-dose value was greater than 5% of Cmax, the subject was dropped from all statistical evaluations.
AUC0-tau was only calculated if there were at least 3 concentrations above LOQ. • AUC0-24: The area under the plasma concentration-time curve from time zero (pre-dose) to 24 h was calculated as the sum of the 3 AUC0-tau: AUC0-24=AUC0-tau1+AUC0-tau2+AUC0-tau3. • AUC0-t: The area under the concentration-time curve from time zero (pre-dose) to the time of last quantifiable concentration was calculated using a linear trapezoidal method after each administration (AUC0-t1, AUC0-t2 and AUC0-t3, where AUC0-t1 was AUC0-t corresponded to the AUC from pre-dose to the last measurable quantifiable concentration following the first infusion). AUC0-t was only calculated if there were at least 3 concentrations above LOQ. • ke: The terminal plasma elimination rate-constant was estimated from log-linear regression analysis of the terminal phase of the plasma concentration-time profile. The number of points included in the terminal phase was determined by visual inspection of the semi-log plots of the plasma concentration-time profiles. A minimum of 3 data points, including the last measured data point and excluding Cmax, had to be available for the regression. The correlation coefficient for the goodness of the fit of the regression line through the data points (r^2) had to be 0.8000 or higher, for the value to be considered reliable. […]

AMVSEFLKQAWFIENEEQEYVQTLKSSKGGPGSAVSPYPTFNPSSDV-NH2 [Peptide 1]
AUC (in vivo, 250 ug/kg, 250 μg/kg each, mean, read-out: AUC0-t3): 2430 ng·h/mL
AUC (in vivo, 250 ug/kg, 250 μg/kg each, mean, read-out: AUC0-tau1): 2630 ng·h/mL
AUC (in vivo, 250 ug/kg, 250 μg/kg each, mean, read-out: AUC0-tau2): 2440 ng·h/mL
AUC (in vivo, 250 ug/kg, 250 μg/kg each, mean, read-out: AUC0-tau3): 2480 ng·h/mL
Cmax (in vivo, 250 ug/kg, 250 μg/kg each, mean, read-out: Global Cmax): 2330 ng/mL
Tmax (in vivo, 250 ug/kg, 250 μg/kg each, median, read-out: Global tmax): 8.5 h
Tmax (in vivo, 250 ug/kg, 250 μg/kg each, median, read-out: tmax3): 16.5 h
AUC (in vivo, 50 μg/kg each, GM, read-out: AUC0-t1): 417 ng·h/mL
AUC (in vivo, 50 μg/kg each, GM, read-out: AUC0-tau1): 509 ng·h/mL
AUC (in vivo, 50 μg/kg each, mean, read-out: AUC0-tau2): 517 ng·h/mL
AUC (in vivo, 50 μg/kg each, mean, read-out: AUC0-tau3): 541 ng·h/mL
AUC(0-t) (in vivo, 100 μg/kg each, GM): 3600 ng·h/mL
AUC (in vivo, 100 μg/kg each, GM, read-out: AUC0-t1): 982 ng·h/mL
AUC (in vivo, 100 μg/kg each, GM, read-out: AUC0-t2): 1120 ng·h/mL
AUC (in vivo, 100 μg/kg each, GM, read-out: AUC0-t3): 1090 ng·h/mL
AUC (in vivo, 100 μg/kg each, mean, read-out: AUC0-t1): 993 ng·h/mL
AUC (in vivo, 100 μg/kg each, mean, read-out: AUC0-tau1): 1120 ng·h/mL
AUC (in vivo, 100 μg/kg each, mean, read-out: AUC0-tau2): 1240 ng·h/mL
AUC (in vivo, 100 μg/kg each, mean, read-out: AUC0-tau3): 1260 ng·h/mL
Cmax (in vivo, 100 μg/kg each, mean, read-out: Global Cmax): 1020 ng/mL
half-life (in vivo, 140 μg/kg each, GM): 1.93 h
AUC(0-t) (in vivo, 140 μg/kg each, GM): 5310 ng·h/mL
AUC (in vivo, 140 μg/kg each, GM, read-out: AUC0-t3): 1570 ng·h/mL
AUC (in vivo, 140 μg/kg each, mean, read-out: AUC0-tau3): 1710 ng·h/mL
half-life (in vivo, 200 μg/kg each, GM): ~2 h
AUC (in vivo, 200 μg/kg each, GM, read-out: AUC0-t1): 2490 ng·h/mL
AUC (in vivo, 200 μg/kg each, GM, read-out: AUC0-tau1): 2590 ng·h/mL
AUC (in vivo, 200 μg/kg each, GM, read-out: AUC0-tau2): 2750 ng·h/mL
AUC (in vivo, 200 μg/kg each, GM, read-out: AUC0-tau3): 2710 ng·h/mL
Cmax (in vivo, 200 μg/kg each, mean, read-out: Global Cmax): 2370 ng/mL
half-life (in vivo, 250 μg/kg each, GM): ~2 h
AUC (in vivo, 250 μg/kg each, GM, read-out: AUC0-t1): 2500 ng·h/mL
AUC (in vivo, 250 μg/kg each, GM, read-out: AUC0-t2): 2300 ng·h/mL
AUC (in vivo, 250 μg/kg each, GM, read-out: AUC0-tau3): 2460 ng·h/mL
Tmax (in vivo, all subjects except one (time of the end of infusion), read-out: tmax after each administration): 0.5 h
Cmax (plasma, 50 μg/kg, 50 μg/kg each, GM, read-out: Cmax1): 403 ng/mL
Cmax (plasma, 50 μg/kg, 50 μg/kg each, mean, read-out: Cmax2): 395 ng/mL
Cmax (plasma, 100 μg/kg, 100 μg/kg each, GM, read-out: Cmax1): 877 ng/mL
Cmax (plasma, 100 μg/kg, 100 μg/kg each, GM, read-out: Cmax3): 958 ng/mL
Cmax (plasma, 100 μg/kg, 100 μg/kg each, mean, read-out: Cmax1): 883 ng/mL
Cmax (plasma, 100 ug/kg, 100 μg/kg each, mean, read-out: Cmax2): 977 ng/mL
Cmax (plasma, 140 μg/kg, 140 μg/kg each, GM, read-out: Cmax1): 1310 ng/mL
Cmax (plasma, 140 μg/kg, 140 μg/kg each, GM, read-out: Cmax3): 1220 ng/mL
Cmax (plasma, 140 μg/kg, 140 μg/kg each, mean, read-out: Cmax1): 1340 ng/mL
Cmax (plasma, 200 μg/kg, 200 μg/kg each, GM, read-out: Cmax3): 2130 ng/mL
Cmax (plasma, 200 μg/kg, 200 μg/kg each, mean, read-out: Cmax1): 2190 ng/mL
Cmax (plasma, 200 μg/kg, 200 μg/kg each, mean, read-out: Cmax2): 2050 ng/mL
Cmax (plasma, 250 μg/kg, 250 μg/kg each, GM, read-out: Cmax1): 1890 ng/mL
Cmax (plasma, 250 μg/kg, 250 μg/kg each, GM, read-out: Cmax2): 1800 ng/mL
Cmax (plasma, 250 μg/kg, 250 μg/kg each, GM, read-out: Cmax3): 1780 ng/mL
Cmax (plasma, 250 μg/kg, 250 μg/kg each, mean, read-out: Cmax1): 1960 ng/mL
Cmax2 (50 μg/kg each, GM): 391 ng/mL
Cmax3 (50 μg/kg each, GM): 396 ng/mL
tmax1 (50 μg/kg each, GM): 0.50 h
tmax2 (50 μg/kg each, GM): 8.50 h
Cmax1 (50 μg/kg each, mean): 406 ng/mL
tmax1 (50 μg/kg each, median): 0.50 h
tmax2 (50 μg/kg each, median): 8.50 h
tmax3 (50 μg/kg each, median): 16.50 h
Cmax2 (100 μg/kg each, GM): 971 ng/mL
tmax1 (100 μg/kg each, GM): 0.50 h
tmax2 (100 μg/kg each, GM): 8.50 h
tmax3 (100 μg/kg each, GM): 16.50 h
Cmax3 (100 μg/kg each, mean): 970 ng/mL
tmax1 (100 μg/kg each, median): 0.50 h
tmax2 (100 μg/kg each, median): 8.50 h
Cmax2 (140 μg/kg each, GM): 1360 ng/mL
tmax1 (140 μg/kg each, GM): 0.50 h
tmax2 (140 μg/kg each, GM): 8.47 h
tmax3 (140 μg/kg each, GM): 16.50 h
Cmax2 (140 μg/kg each, mean): 1390 ng/mL
Cmax3 (140 μg/kg each, mean): 1240 ng/mL
tmax1 (140 μg/kg each, median): 0.50 h
tmax2 (140 μg/kg each, median): 8.50 h
AUC0-tau3 (200 μg/kg each, GM): 2774.47 ng·h/mL
Cmax1 (200 μg/kg each, GM): 2170 ng/mL
Cmax2 (200 μg/kg each, GM): 2020 ng/mL
tmax1 (200 μg/kg each, GM): 0.50 h
tmax2 (200 μg/kg each, GM): 8.50 h
tmax3 (200 μg/kg each, GM): 16.47 h
Cmax3 (200 μg/kg each, mean): 2170 ng/mL
tmax1 (200 μg/kg each, median): 0.50 h
tmax2 (200 μg/kg each, median): 8.50 h
tmax2 (250 μg/kg each, GM): 8.54 h
tmax3 (250 μg/kg each, GM): 16.44 h
Cmax2 (250 μg/kg each, mean): 1930 ng/mL
Cmax3 (250 μg/kg each, mean): 1800 ng/mL
tmax1 (250 μg/kg each, median): 0.50 h
tmax2 (250 μg/kg each, median): 8.50 h
